Results taken from US20230174473A1, “ANTIMICROBIAL AND ANTIVIRAL SULFUR CONTAINING GLYCEROL MONOESTER DERIVATIVES” (priority 2020, published 2023).
Converted amounts (≈) assume the structure as drawn.

Key:
Bacillus subtilis = assay: MIC/MBC at 24 hours; format: cell-based; details: Time 0 1.1E+07 CFU/ml, 200 RPM shaking at 37° C.
Method: Bacillus subtilis, an aerobic spore-former, was incubated with 200 RPM shaking at 37° C. The strain was a recent clinical isolate at the University of Iowa, and proves to develop resistance to standard […] agents.
(§1) All solutions used in the MBC and MIC studies were prepared from a stock of 100 mg/ml of either GML, SGML or S2GML in absolute ethanol.

TSST-1 = format: cell-based, Staphylococcus aureus
Escherichia coli = assay: MIC and MBC test with E. coli; format: cell-based; details: for effectiveness compared with GML (FIG. 3): E. coli MIC and MBC test; for Minimum Inhibitory Concentration / Mininum Bactericidal Concentration: E. coli laboratory strain from a patient with urinary tract infection, same conditions as S. aureus MN8
Method: The conditions for this test were the same as in the above example with S. aureus MN8. The E. coli strain was a laboratory strain from a patient with a confirmed urinary tract infection. The strain is maintained in the laboratory at -80° C.

[1] = system: Streptococcus pyogenes (Group A streptococcus) 594; assay: MIC/MBC at 24 hours; format: cell-based; details: Streptococcus pyogenes GAS 594, Time 0 2.7E+06 CFU/ml, stationary at 37° C. in 5% CO2
Method: Streptococcus pyogenes (Group A streptococcus) 594 is a standard scarlet fever strain that has been extensively published on. The strain was incubated stationary at 37° C. in 5% CO2.
as §1

Candida auris = assay: MIC/MBC at 24 hours; format: cell-based; details: Time 0 4.5E+05 CFU/ml
Method: Candida auris is a newly emerging yeast (fungus) that is causing skin and bloodstream infections in humans. It easily becomes resistant to anti-fungal agents, making development of novel therapeutics a necessity. This organism is related to Candida albicans and other Candida species. The MIC and MBC in the above table show very good activity of both the SGML and S2GML versus this organism.
as §1

[2] = system: Lipase (glycerol ester hydrolase); assay: Lipase (glycerol ester hydrolase) assay, esterase resistance; format: biochemical, Staphylococcus aureus; details: 500 ug/ml compound; lipase 25 ug/ml; 24 hours at 37° C.
Method: Protocol for Lipase (glycerol ester hydrolase) assay: • 1. Two separate samples of lipase at 25 ug/ml were prepared. • 2. Microscope slides were made up with 500 ug/ml of GML, SGML, or S2ML compounds. • These slides contained 0.85% agarose (Difco) heat solubilized into PBS (0.005 M NaPO4 pH 7.2; 0.15MNaC1). • 3. The mixtures contained the compounds above their solubility limits, so they were vortexed, and 4.5 ml of the cloudy mixtures was spread onto microscope slides. • 4. The slides remained at room temperature for 1 hour to allow the agarose to solidify. • 5. The, 4 mm wells were punched into the agarose, twice per slide. • 6. 20 ul of the Lipase was added to each well. • 7. The slides were incubated for 24 hours at 37° C. • 8. The diameter squared was determined for each. This allows determination of hydrolysis of compound. • GML: 15 mm; 15 mm diameters (diameters squared=225 mm) • SGML: 12 mm; 13 mm diameters (diameters squared=144 mm and 169 mm for an average of 156.5 mm) • S2GML: 0 mm; 0 mm diameters (diameters squared=0) • 10. Diameter squared is used to the determination would be a straight line with a standard curve. • Set GML at 100% • 11. SGML is 70% as much as GML • 12. S2GML is 0% of GML

[3] = system: Staphylococcus aureus strain MN8; assay: MIC and MBC assay, broth dilution with plate counts; format: cell-based; details: for minimum bactericidal concentration (MBC) / minimum inhibitory concentration (MIC): Staphylococcus Aureus MN8 strain, 24-hour incubation, Todd Hewitt broth, aerobic 37° C.; for activity compared with GML (log CFU/mL, FIGS. 1A and 1B): staphylococcus aureus MN8 cultured with various concentrations
Method: For this experiment, all cultures were aerobic at 37° C. with 150 RPM gyrotary shaking. Stationary phase with this microbe is 1.0x1010 colony-forming units (CFUs)/ml. The next morning the culture was diluted to approximately 5x10^6/ml in 1 ml amounts of Todd Hewitt broth in 5 ml polystyrene test tubes. The tubes contained serial two-fold dilutions of glycerol monolaurate, SGML, or […]. The control tubes contained no GML or SGML and […] compounds. The compounds were tested in triplicate. […] The control tube contained the highest volume of ethanol that was used to deliver the compounds to each 1 ml test tube. […] Once plated, the plates were incubated aerobically for 24 hours at 37° C. Counts were made to determine CFUs/ml. The CFUs/ml were log-transformed and mean ± SD were determined. Using the standard MIC and MBC assay above with staphylococcus aureus strain […] and […] were tested with GML.

| Structure (SMILES) | MIC/MBC (Bacillus subtilis) | inhibition of TSST-1 (TSST-1) | effectiveness compared with GML (FIG. 3) (Escherichia coli) | Minimum Inhibitory Concentration (Escherichia coli) | Mininum Bactericidal Concentration (Escherichia coli) | MIC/MBC [1] | MIC/MBC (Candida auris) | hydrolysis as % of GML (diameter squared, GML set at 100%) [2] | minimum bactericidal concentration (MBC) [3] | minimum inhibitory concentration (MIC) [3] | activity compared with GML (log CFU/mL, FIGS. 1A and 1B) [3] |
| --- | --- | --- | --- | --- | --- | --- | --- | --- | --- | --- | --- |
| CCCCCCCCCCCC(=S)OCC(O)CO (stereo not shown) [SGML, glycerol thionomonolaureate] | 10 µg/mL (≈ 34.4 µM) | 8 µg/mL | more effective than GML | 250 µg/mL | 250 µg/mL | 0.1 µg/mL (≈ 0.344 µM) | 10 µg/mL (≈ 34.4 µM) | 70% | 125 µg/mL (≈ 430 µM) | 125 µg/mL (≈ 430 µM) | more active than GML |
| CCCCCCCCCCCC(=S)SCC(O)CO (stereo not shown) [Example S2GML, glycerol dithionomonolaureate] | <1.0 µg/mL | < 4 µg/mL | performed similarly to GML | 500 µg/mL | 500 µg/mL | <0.1 µg/mL | 1.0 µg/mL (≈ 3.26 µM) | 0% | 63.5 µg/mL (≈ 207 µM) | 31.125 µg/mL (≈ 102 µM) | clearly has more activity |
